Values joined by “and” are separate entries in the source; they are usually repeats but may differ in a detail not shown here. Equal values may be shown once.
Legend:
[1] = xn = mol fraction of the nth substance listed; conditions: 101 kPa

C1CCC2=[NH+]CCCN2CC1.c1c[n-]cn1
Conditions | viscosity [mPa·s]
298.15 K, 100 kPa | 34.34

C1CCCCCC1
Conditions | viscosity [mPa·s]
303.15 K, 101 kPa | 1.239

CC(=O)O
Conditions | viscosity
293.15 K, 101.32 kPa | 1.226 mPa·s
293.15 K, 101.33 kPa | 1.226 mPa·s and 1.222 mPa·s
298.15 K, 101.3 kPa | 1.155 mPa·s and 1.27 mPa·s
303.15 K, 100 kPa | 0.982 mPa·s
303.15 K, 101.33 kPa | 1.346 mPa·s and 0.98 mPa·s
308.15 K, 101.3 kPa | 1.08 mPa·s
308.15 K, 101.32 kPa | 0.9795 mPa·s
313.15 K, 101.3 kPa | 0.931 mPa·s
318.15 K, 101.32 kPa | 0.8536 mPa·s
323.15 K, 101.3 kPa | 0.823 mPa·s and 0.883 mPa·s

CC1CCCC(C)C1=O (configuration not stated)
100 kPa
Conditions | viscosity [mPa·s]
303.15 K | 3.709
308.15 K | 3.237
313.15 K | 2.765

CCC(=O)N(CC)CC
Conditions | viscosity [mPa·s]
298.16 K, 101 kPa | 1.241

CCCCCCCC[n+]1ccccc1.F[B-](F)(F)F
101.3 kPa
Conditions | viscosity [mPa·s]
293.15 K | 319.7
298.15 K | 233.5
303.15 K | 171.9
308.15 K | 134.8
313.15 K | 105.7
318.15 K | 81.56
323.15 K | 64.89

CCCCCC[n+]1ccn(C)c1.[I-]
101 kPa
Conditions | viscosity [mPa·s]
293.15 K | 2633
298.15 K | 1742
303.15 K | 1175
308.15 K | 801.8
313.15 K | 563.5
318.15 K | 404.7
323.15 K | 278.8

CCC[N+](C)(C)C.O=S(=O)([N-]S(=O)(=O)C(F)(F)F)C(F)(F)F
101.3 kPa
Conditions | viscosity [mPa·s]
293.15 K | 102
298.15 K | 79.4
303.15 K | 63.2
308.15 K | 51.1
313.15 K | 42
318.15 K | 35
323.15 K | 29.5

CCCn1cc[n+](C)c1C.F[B-](F)(F)F
101 kPa
Conditions | viscosity [mPa·s]
298.15 K | 377.3
303.15 K | 271.9
308.15 K | 202
313.15 K | 152.2
318.15 K | 117.4
323.15 K | 92.29

CCNc1ccccc1
Conditions | viscosity
293.15 K, 101 kPa | 2.282 mPa·s
298 K, 101 kPa | 1.947 mPa·s
298 K, 101.3 kPa | 1.952 mPa·s
298.15 K, 101 kPa | 1.971 mPa·s and 1.75 mPa·s and 1.959 mPa·s
303 K, 101 kPa | 1.741 mPa·s
303 K, 101.3 kPa | 1.71 mPa·s
303.15 K, 100 kPa | 1.742 mPa·s
308 K, 101 kPa | 1.549 mPa·s
308 K, 101.3 kPa | 1.559 mPa·s
308.15 K, 101.33 kPa | 1.5 mPa·s
313 K, 101 kPa | 1.392 mPa·s
313 K, 101.3 kPa | 1.389 mPa·s
313.15 K, 101 kPa | 1.405 mPa·s and 1.391 mPa·s and 1.34 mPa·s
318 K, 101 kPa | 1.263 mPa·s
318 K, 101.3 kPa | 1.251 mPa·s
318.15 K, 101 kPa | 1.264 mPa·s
323.15 K, 101 kPa | 1.146 mPa·s and 1.07 mPa·s and 1.124 mPa·s

CCOC=O
viscosity
Conditions | 293.15 K | 298.15 K | 303.15 K | 308.15 K | 313.15 K | 318.15 K | 323.15 K
100 kPa | – | 0.38 mPa·s and 0.38 mPa·s | 0.36 mPa·s and 0.36 mPa·s | – | 0.328 mPa·s | 0.31 mPa·s and 0.31 mPa·s | 0.29 mPa·s and 0.29 mPa·s
101 kPa | 0.418 mPa·s | 0.3972 mPa·s | 0.378 mPa·s | 0.361 mPa·s | – | – | 0.308 mPa·s
101.33 kPa | – | 0.379 mPa·s | – | – | – | – | –

C[Si]1(C)O[Si](C)(C)O[Si](C)(C)O[Si](C)(C)O1
viscosity [mPa·s]
Conditions | 298.15 K | 308.15 K | 318.15 K
101 kPa | 2.19 | 1.806 | 1.514
103 kPa | 2.068 | 1.71 | 1.435

C[n+]1ccn(CCO)c1.O=S(=O)([O-])C(F)(F)C(F)(F)C(F)(F)C(F)(F)F
101 kPa
Conditions | viscosity [mPa·s]
298.15 K | 831.6
308.15 K | 411.4
318.15 K | 224

ClCCCl
Conditions | viscosity
293.15 K, 101 kPa | 0.8397 mPa·s
298 K, 101.33 kPa | 0.77 mPa·s
303 K, 101.33 kPa | 0.722 mPa·s
303.15 K, 101.3 kPa | 0.73 mPa·s
303.15 K, 101.33 kPa | 0.7295 mPa·s and 0.7295 mPa·s
308.15 K, 100 kPa | 0.682 mPa·s
308.15 K, 101 kPa | 0.6929 mPa·s
313 K, 101.33 kPa | 0.639 mPa·s
323 K, 101.33 kPa | 0.573 mPa·s
323.15 K, 101 kPa | 0.5724 mPa·s

ClCCl
Conditions | viscosity
293.15 K, 101 kPa | 0.428 mPa·s
298 K, 101 kPa | 0.433 mPa·s
298.15 K, 101.33 kPa | 0.38 mPa·s and 0.406 mPa·s and 0.401 mPa·s
303.15 K, 101.3 kPa | 0.394 mPa·s
303.15 K, 101.33 kPa | 0.369 mPa·s
308.15 K, 101.33 kPa | 0.362 mPa·s

O=S(=O)(O)O
101 kPa
Conditions | viscosity [mPa·s]
293.15 K | 28.7
313.15 K | 16
323.15 K | 12.5

O=S(=O)(O)O + O=[N+]([O-])c1ccccc1
[1], 303.15 K
Conditions | viscosity [mPa·s]
x1 = 0.2497 | 3.5
x1 = 0.4023 | 5.75
x1 = 0.562 | 9.38
x1 = 0.656 | 12.28
x1 = 0.6792 | 12.94
x1 = 0.7132 | 13.56
x1 = 0.796 | 16.17
x1 = 0.8755 | 18.31
x1 = 0.9516 | 18.96
x1 = 0.9542 | 18.56
x1 = 0.9702 | 19.68
x2 = 0.0128 | 19.92

CCNc1ccccc1 + Oc1ccccc1
viscosity [mPa·s], [1]
Conditions | 298.15 K | 313.15 K | 323.15 K
x1 = 0.0794 | 8.63 | 4.35 | 3.14
x1 = 0.1373 | 8.82 | 4.53 | 3.16
x1 = 0.206 | 8.53 | 4.34 | 3.06
x1 = 0.2495 | 8.18 | 4.26 | 3.13
x1 = 0.3418 | 7.28 | 3.96 | 2.97
x1 = 0.4372 | 5.98 | 3.41 | 2.54
x1 = 0.5 | 5.1 | 2.99 | 2.15
x1 = 0.5381 | 4.77 | 2.78 | 2.1
x1 = 0.6445 | 3.68 | 2.31 | 1.76
x1 = 0.7005 | 3.27 | 2.06 | 1.62
x1 = 0.7565 | 2.9 | 1.88 | 1.54
x1 = 0.8744 | 2.22 | 1.55 | 1.24

From the CheMixHub viscosity set
